Assay results published in patent US11312726B2, “Thienodiazepine derivatives and application thereof” (priority 2017, dated 2022).

Experiments:
[1] = tested on: MC38 mouse colon cancer cell transplantation tumor; test: In vivo anti-tumor effect, MC38 mouse colon cancer transplantation tumor model; conditions: for relative tumor proliferation rate T/C / tumor growth inhibition rate TGI: 20th day after administration
Protocol: In Vivo Anti-Tumor Effect of Compound 32 in MC38 Mouse Colon Cancer Cell Animal Transplantation Tumor Model
Week-age and weight: 6-7 weeks of age, 16-20 grams of body weight
Supplier: Shanghai SLAC Laboratory Animal Co., Ltd.
(§1) 3. Experiment Methods and Steps
Mouse colon cancer MC38 cells (OBiO Technology (Shanghai) Corp., Ltd.) were cultured in monolayer in vitro, and the culture conditions were DMEM culture medium (Gibco; article number: 12100) with 10% fetal bovine serum. The culture was performed at 37° C. in 5% CO2 in an incubator. Conventional digestion treatment with 0.25% pancreatin-EDTA for passage was carried out. When the cells were in the exponential growth phase and the saturation was 80%-90%, the cells were harvested, counted, and inoculated.
(§2) 3.2 Tumor Cell Inoculation
0.1 mL of 2×10^5 MC38 cells were subcutaneously inoculated into the right-back of each mouse. The random grouping and administration was carried out according to the tumor volume when the average tumor volume reached about 70 mm^3.
Tumor diameter was measured twice a week with vernier calipers. The equation for calculating tumor volume was V=0.5×a×b^2, wherein a and b represented the major and minor diameters of the tumor, respectively.
The tumor inhibition effect of the compound was evaluated by TGI (%) or relative tumor proliferation rate T/C (%). Relative tumor proliferation rate T/C (%)=TRTV/CRTV×100% (TRTV: RTV of the treatment group; CRTV: RTV of the negative control group). The relative tumor volume (RTV) was calculated according to the results of the tumor measurement. The calculation equation was RTV=Vt/V0, where V0 was the average tumor volume measured at the grouping and administration (i.e. D0), and Vt was the average tumor volume at the time of a certain measurement. TRTV and CRTV were obtained from the data on the same day.
TGI (%) reflected the tumor growth inhibition rate.
At the end of the experiment, the tumor weight would be measured and the Tweight/Cweight percentage would be calculated. Tweight and Cweight represented the tumor weights of the administration group and the medium control group, respectively.
Statistical analysis was performed using SPSS software based on the tumor volume and the tumor weight at the end of the experiment. The comparison between two groups was analyzed by t-test, and the comparison between three or more groups was analyzed by one-way ANOVA.

[2] = tested on: Human prostatic cancer PC-3 cell subcutaneous xenograft tumor; test: In vivo pharmacodynamics, PC-3 subcutaneous xenograft tumor model; conditions: 50 mg/kg PO BID × 21 days
Protocol: In Vivo Pharmacodynamics Study of Compound 32 on Human Prostatic Cancer PC-3 Cell Subcutaneous Xenograft Tumor Model
The formulation method of the test substance was the same as in Table 2, and the animal grouping and the dosage regimen were the same as in Table 3.
Strain: BALB/c nude mouse
Week-age and weight: 6-8 weeks of age, 18-22 grams of body weight
Supplier: Shanghai Sippr-BK laboratory animal Co. Ltd.
as §1
Human prostatic cancer PC-3 cells were cultured in monolayer in vitro, and the culture conditions were F-12K culture medium (supplier: Gibco; article number: 21127-022; manufacturing batch number: 1868870) with 10% fetal bovine serum, 100 U/mL penicillin and 100 μg/mL streptomycin. The culture was performed at 37° C. in 5% CO2. Conventional digestion treatment with pancreatin-EDTA for passage was carried out twice a week. When the cells were in the exponential growth phase, the cells were harvested, counted, and inoculated.
as §2
0.1 mL of 10×10^6 PC-3 cells were subcutaneously inoculated into the right-back of each nude mouse. The grouping and administration was started when the average tumor volume reached 100-150 mm^3.
3.3 Tumor Measurement, Experiment Indices, and Statistical Analysis were the Same as MDA-MB-231 Model

BRD4-BD1 = BRD4-BD1 (Homo sapiens (Human), UniProt O60885); test: BRD4 biochemical activity test (TR-FRET), BD1; conditions: read-out: BRD4 Binding (BD1), IC50
Source text: BRD4 Biochemical Activity Test
1) BRD4-BD1 and BRD4-BD2 proteins of BPS Company, polypeptide of ANASPEC Company, and test reagent of PerkinElmer Company were used in the experiments;
2) The TR-FRET experimental principle was used in the experiment to screen compounds.
3) Relevant control compounds
1) Preparation of the Compound Plate:
Preparation of the compound plate in the experiment was achieved by Echo:
2) Preparation of Reaction Reagents:
Relevant reaction reagents should be prepared on the day of the experiment:
a) Formulation of 1× assay buffer;
b) Formulation of 3× component solution for the experiment: […]
1. The reagent was taken out and placed on ice to naturally melt for later use;
2. “Solution A” (protein solution), “solution B” (polypeptide solution), and “solution C” (test reagent solution) used in the experiment were formulated with the 1× assay buffer, and during the formation of the 3× solution from the components used in the experiment reaction system, the amounts of solutions A, B and C must be enough for the required amounts in the experiment.
3) Experimental Operation Steps:
The experiment plate was a plate that contained a gradient concentration of the compound and a corresponding DMSO solution and was prepared with ECHO before the experiment:
a) The experiment plate was taken out, and 5 μL/well of “solution A” (protein solution) was added to columns 2-23 of the experiment plate, then 5 μL/well of 1× assay buffer was added to columns 1 and 24 of the experiment plate, and columns 1 and 24 were used as Min control in the experiment system;
b) Centrifugation at 1000 rpm was carried out for 30 seconds;
c) The plate was incubated at 23° C. for 20 minutes;
d) After 20 minutes of incubation, 5 μL/well of “solution B” (polypeptide solution) was added to columns 1-24 of the experiment plate;
e) Centrifugation at 1000 rpm was carried out for 30 seconds;
f) The plate was incubated at 23° C. for 20 minutes;
g) After 20 minutes of incubation, 5 μL/well of “solution C” (test reagent solution) was added to columns 1-24 of the experiment plate;
h) Centrifugation at 1000 rpm was carried out for 30 seconds;
i) The plate was incubated at 23° C. for 40 minutes;
j) The experiment plate was placed on EnVision to read the plate.
a) The corresponding Max control and Min control of each experiment plate were used to convert to the Z′ value of the experiment plate, and the Z′ value of each plate was ensured to be >0.5;
b) The IC50 value was calculated from the signal of the control compound by XLFIT5, and ensured to be maintained within 3 times of the average value of historical data.

[3] = each administration group (15, 25, 50 mg/kg)

For Cc1sc2c(c1C)C(c1ccc(Cl)cc1)=N[C@@H](CC(=O)Nc1ccc3c(c1)COC3=O)c1nnc(C)n1-2 [Compound 32], the “relative tumor proliferation rate T/C” value ([1]; 15 mg/kg p.o. BID × 20 days) was 33.68%, the “tumor growth inhibition rate TGI” value ([1]; 15 mg/kg p.o. BID × 20 days) was 68.81% and the “relative tumor proliferation rate T/C” value ([1]; 25 mg/kg p.o. BID × 20 days) was 27.59%. For the same compound, the “tumor growth inhibition rate TGI” value ([1]; 25 mg/kg p.o. BID × 20 days) was 75.21%, the “relative tumor proliferation rate T/C” value ([1]; 50 mg/kg p.o. BID × 20 days) was 10.04% and the “tumor growth inhibition rate TGI” value ([1]; 50 mg/kg p.o. BID × 20 days) was 93.46%. For the same compound, the “tolerance of the animals” value [1, 3] was “good tolerance”, the “tumor inhibition effect (in words)” value [1, 3] was “Significant tumor inhibition effects” and the “tolerance of the animals” value [2] was “well tolerated”. The “tumor inhibition effect compared with solvent control” value ([2]; 21st day) was “significant tumor inhibition effect”, the “relative tumor proliferation rate T/C” value ([2]; 21st day after administration) was 44.63% and the “tumor growth inhibition rate TGI” value ([2]; 21st day after administration) was 58.4%. It also gave an IC50 (BRD4-BD1) of 66 nM.
